This is an account of results in ChEMBL document CHEMBL1148055, “Bioactive terpenoids from Octocorallia, I. Bioactive diterpenoids: litophynols A and B from the mucus of the soft coral Litophyton sp” (J Nat Prod, 1994).

SMILES strings stand for the structures.

The data set is described as follows: Toxicity against rabbit RBC assessed as hemolytic activity after 15 mins. The settings on record: erythrocyte, 0.25 h. The format is cell-based, Oryctolagus cuniculus.
For the compound `C=C1CC[C@H](C(C)C)[C@@H]2[C@H]1[C@@H]1O[C@H]2[C@](C)(OC(=O)CCC)CC[C@H](O)C(=C)[C@H]1O` [LITOPHYNOL A], the Activity result is “Toxic”.
To `C=C1[C@@H]2[C@H]([C@H](C(C)C)C[C@H]1OC(C)=O)[C@@H]1O[C@H]2C[C@](C)(O)[C@H](O)CC[C@@]1(C)OC(=O)CCC` [LITOPHYNIN I MONOACETATE] belongs “Toxic”; to `C=C1CC[C@H](C(C)C)[C@@H]2[C@H]1[C@H]1C[C@](C)(O)[C@@H](O)CC[C@@](C)(OC(=O)CCC)[C@@H]2O1` [LITOPHYNIN E], “Toxic”.
In the case of `C=C1CC[C@H](C(C)C)[C@@H]2[C@H]1[C@@H]1O[C@H]2[C@](C)(OC(=O)CCC)CC[C@H](O)[C@@](C)(O)[C@H]1O` [LITOPHYNOL B] it was “Toxic”.
